Where “and” joins values, the source holds several entries; their conditions need not be identical. Equal values may be shown once. Read-outs that look alike come from different tables or passages of the source.
How the values were obtained:
Botrytis cinerea [1] = test system: Botrytis cinerea
Late blight = format: cell-based
White mold [2] = format: cell-based
Septoria = format: cell-based
White mold [3] = experiment: PDA plate inhibition, caprylic acid and organic acids (Example 13); format: cell-based
Botrytis cinerea [4] = experiment: as above; format: cell-based

**Q.** `O=C(O)C(O)C(O)C(=O)O` (centres unmarked) [0.75% tartaric acid, tartaric acid] was tested. Which “Infected berries (% of total)” value (Botrytis cinerea [1]; Day 2 after treatment) did it give?
**A.** 31%

**Q.** And the “Infected berries (% of total)” value (Botrytis cinerea [1]; Day 3 after treatment)?
**A.** 58%

**Q.** For `O=C(O)CO` [0.0175% glycolic acid, glycolic acid], which “Measurement of fungal growth, based on control plate (100%)” value (“Measurement of fungal growth … (100%)” below) (Late blight; Day 2 after inoculum) is on record?
**A.** 79%

**Q.** What about the “Measurement of fungal growth … (100%)” value (Late blight; Day 3 after inoculum) of the same compound?
**A.** 104%

**Q.** And the “Measurement of fungal growth … (100%)” value (White mold [2])?
**A.** 127% and 108%

**Q.** And the “Measurement of fungal growth … (100%)” value (Septoria)?
**A.** 80% and 90%

**Q.** For `CCNCC.O=C(O)c1ccccc1O` [0.010% diethylamine salicylate, diethylamine salicylate], which “Inhibition (%) of white mold” value (White mold [3]) is on record?
**A.** 7%

**Q.** What about the “Inhibition (%) of Botrytis cinerea” value (Botrytis cinerea [4]) of the same compound?
**A.** 0%
